Measured values as given in patent US20190216761A1, “COMPOSITIONS COMPRISING 15-HEPE AND METHODS OF USING THE SAME” (Afimmune Limited, priority 2015, published 2019).
Residue numbers refer to the chain shown, from its start.

Legend:
Format in all cases: cell-based
hPPARα = target: T1, hPPARα (Homo sapiens, UniProt Q07869); experiment: PPAR antagonist reporter assay (reference agonist at EC80)
T1 construct: expressed in transfected cells
T1 sequence (Q07869 239-466 limits assumed): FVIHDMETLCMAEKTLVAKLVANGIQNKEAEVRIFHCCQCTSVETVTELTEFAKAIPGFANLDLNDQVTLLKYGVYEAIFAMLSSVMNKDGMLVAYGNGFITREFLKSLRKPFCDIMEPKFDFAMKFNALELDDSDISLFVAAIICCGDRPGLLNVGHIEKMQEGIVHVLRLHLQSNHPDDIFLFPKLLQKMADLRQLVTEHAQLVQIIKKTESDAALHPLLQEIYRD
Experimental: (§1) This study utilized proprietary reporter cells expressing a hybrid receptor comprising the N-terminal Gal4 DNA binding domain fused to the ligand binding domain of the specific human nuclear receptor (hPPARα, hPPARδ, and hPPARγ) and rat nuclear receptor (rPPARα, rPPARδ, and rPPARγ). The reporter vectors used in this Example comprise the firefly luciferase gene functionally linked to the Gal4 upstream activation sequence.
(§2) Nuclear Receptor assay was performed by suspending Reporter Cells in CRM containing 10% charcoal stripped FBS. 2×-EC80 concentrations of the appropriate reference agonist were then added to the Reporter Cell suspension, and 100 μL of the mixture dispensed into wells of a white 96-well plate. Test compounds were diluted using compound screening medium (CSM) containing 10% charcoal stripped FBS to generate “2×-concentration” treatment media. Immediately after this dilution step, 100 μL of each diluted 2×-concentration treatment medium was dispensed (in triplicate) into the Reporter Cell-containing assay wells.
(§3) After incubation at 37° C. for 24 hours, the treatment media was discarded. Each well was rinsed once with LCM Buffer; LCM substrate was then added. After incubation for 30 minutes at 37° C., fluorescence was measured to determine the relative number of live cells per assay well. LCM substrate was then discarded and 100 μL of Luciferase Detection Reagent substrate was added to each well. RLUs were quantified from each well to determine nuclear receptor activities.

hPPARγ = target: T2, hPPARγ (Homo sapiens, UniProt P37231); experiment: as above
T2 construct: expressed in transfected cells
T2 sequence (P37231 238-503 limits assumed): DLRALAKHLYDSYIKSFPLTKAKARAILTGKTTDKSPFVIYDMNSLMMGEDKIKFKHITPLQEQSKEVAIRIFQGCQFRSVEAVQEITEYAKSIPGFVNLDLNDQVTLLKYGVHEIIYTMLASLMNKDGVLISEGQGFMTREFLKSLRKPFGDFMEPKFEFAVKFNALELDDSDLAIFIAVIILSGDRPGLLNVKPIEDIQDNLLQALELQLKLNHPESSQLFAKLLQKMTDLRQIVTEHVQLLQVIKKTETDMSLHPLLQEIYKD
Experimental: as §1, §2, §3

hPPARδ = target: T3, hPPARδ (Homo sapiens, UniProt Q03181); experiment: as above
T3 construct: expressed in transfected cells
T3 sequence (Q03181 211-439 limits assumed): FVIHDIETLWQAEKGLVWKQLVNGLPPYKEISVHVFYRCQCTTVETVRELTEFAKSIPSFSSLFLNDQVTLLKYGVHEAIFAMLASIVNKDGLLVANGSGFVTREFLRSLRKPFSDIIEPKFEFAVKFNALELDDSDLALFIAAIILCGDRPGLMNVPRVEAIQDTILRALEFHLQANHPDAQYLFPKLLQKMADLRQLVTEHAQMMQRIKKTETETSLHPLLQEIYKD
Experimental: as §1, §2, §3

rPPARα = target: T4, rPPARα (Rattus norvegicus, UniProt P37230); experiment: as above
T4 construct: expressed in transfected cells
T4 sequence (P37230 239-466 limits assumed): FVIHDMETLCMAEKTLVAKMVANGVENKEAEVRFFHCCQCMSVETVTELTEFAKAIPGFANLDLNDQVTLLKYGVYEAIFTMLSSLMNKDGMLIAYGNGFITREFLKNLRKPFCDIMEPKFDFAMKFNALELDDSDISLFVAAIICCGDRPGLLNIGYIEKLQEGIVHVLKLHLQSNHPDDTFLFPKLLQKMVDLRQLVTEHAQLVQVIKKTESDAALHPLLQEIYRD
Experimental: as §1, §2, §3

rPPARγ = target: T5, rPPARγ (Rattus norvegicus, UniProt O88275); experiment: as above
T5 construct: expressed in transfected cells
T5 sequence (O88275 238-503 limits assumed): T2 sequence (P37231 238-503 limits assumed) with S93N, V98I, L226V, Q245H
Experimental: as §1, §2, §3

rPPARα Reporter Cells = experiment: Live cell multiplex assay
Experimental: as §1, §2, §3

rPPARδ Reporter Cells = experiment: Live cell multiplex assay
Experimental: as §1, §2, §3

% Inhibition of agonist-stimulated receptor activity vs. 0.10% DMSO, hPPAR-α (hPPARα; 137 nM): 49%
% Inhibition of agonist-stimulated receptor activity vs. 0.10% DMSO, hPPAR-α (hPPARα; 412 nM): 21%
% Inhibition of agonist-stimulated receptor activity vs. 0.10% DMSO, hPPAR-α (hPPARα; 1,235 nM): 13%
% Inhibition of agonist-stimulated receptor activity vs. 0.10% DMSO, hPPAR-α (hPPARα; 3,704 nM): 14%
% Inhibition of agonist-stimulated receptor activity vs. 0.10% DMSO, hPPAR-α (hPPARα; 11,111 nM): 14%
% Inhibition of agonist-stimulated receptor activity vs. 0.10% DMSO, hPPAR-α (hPPARα; 33,333 nM): 26%
% Inhibition of agonist-stimulated receptor activity vs. 0.10% DMSO, hPPAR-α (hPPARα; 100,000 nM): 40%
% Inhibition of agonist-stimulated receptor activity vs. 0.10% DMSO, hPPAR-α (hPPARα; 300,000 nM): 83%
inhibition of human PPARs (in words), hPPARα (hPPARα; at higher test concentrations): apparent inhibition
% Inhibition of agonist-stimulated receptor activity vs. 0.10% DMSO, hPPAR-γ (hPPARγ; 137 nM): 17%
% Inhibition of agonist-stimulated receptor activity vs. 0.10% DMSO, hPPAR-γ (hPPARγ; 412 nM): 0.87%
% Inhibition of agonist-stimulated receptor activity vs. 0.10% DMSO, hPPAR-γ (hPPARγ; 1,235 nM): −1.4%
% Inhibition of agonist-stimulated receptor activity vs. 0.10% DMSO, hPPAR-γ (hPPARγ; 3,704 nM): −4.6%
% Inhibition of agonist-stimulated receptor activity vs. 0.10% DMSO, hPPAR-γ (hPPARγ; 11,111 nM): −0.42%
% Inhibition of agonist-stimulated receptor activity vs. 0.10% DMSO, hPPAR-γ (hPPARγ; 33,333 nM): 5.2%
% Inhibition of agonist-stimulated receptor activity vs. 0.10% DMSO, hPPAR-γ (hPPARγ; 100,000 nM): 44%
% Inhibition of agonist-stimulated receptor activity vs. 0.10% DMSO, hPPAR-γ (hPPARγ; 300,000 nM): 100%
inhibition of human PPARs (in words), hPPARγ (hPPARγ; at higher test concentrations): apparent inhibition
% Inhibition of agonist-stimulated receptor activity vs. 0.10% DMSO, hPPAR-δ (hPPARδ; 137 nM): 0.68%
% Inhibition of agonist-stimulated receptor activity vs. 0.10% DMSO, hPPAR-δ (hPPARδ; 412 nM): −7.7%
% Inhibition of agonist-stimulated receptor activity vs. 0.10% DMSO, hPPAR-δ (hPPARδ; 1,235 nM): −11%
% Inhibition of agonist-stimulated receptor activity vs. 0.10% DMSO, hPPAR-δ (hPPARδ; 3,704 nM): −10%
% Inhibition of agonist-stimulated receptor activity vs. 0.10% DMSO, hPPAR-δ (hPPARδ; 11,111 nM): −10%
% Inhibition of agonist-stimulated receptor activity vs. 0.10% DMSO, hPPAR-δ (hPPARδ; 33,333 nM): 1.6%
% Inhibition of agonist-stimulated receptor activity vs. 0.10% DMSO, hPPAR-δ (hPPARδ; 100,000 nM): 29%
% Inhibition of agonist-stimulated receptor activity vs. 0.10% DMSO, hPPAR-δ (hPPARδ; 300,000 nM): 100%
inhibition of human PPARs (in words), hPPARδ (hPPARδ; at higher test concentrations): apparent inhibition
% Inhibition of agonist-stimulated receptor activity vs. 0.10% DMSO, rPPAR-α (rPPARα; 137 nM): 42%
% Inhibition of agonist-stimulated receptor activity vs. 0.10% DMSO, rPPAR-α (rPPARα; 412 nM): 26%
% Inhibition of agonist-stimulated receptor activity vs. 0.10% DMSO, rPPAR-α (rPPARα; 1,235 nM): 25%
% Inhibition of agonist-stimulated receptor activity vs. 0.10% DMSO, rPPAR-α (rPPARα; 3,704 nM): 21%
% Inhibition of agonist-stimulated receptor activity vs. 0.10% DMSO, rPPAR-α (rPPARα; 11,111 nM): 21%
% Inhibition of agonist-stimulated receptor activity vs. 0.10% DMSO, rPPAR-α (rPPARα; 33,333 nM): 38%
% Inhibition of agonist-stimulated receptor activity vs. 0.10% DMSO, rPPAR-α (rPPARα; 100,000 nM): 79%
% Inhibition of agonist-stimulated receptor activity vs. 0.10% DMSO, rPPAR-α (rPPARα; 300,000 nM): 100%
inhibition of rat PPARs (in words), rPPARα (rPPARα; at higher test concentrations): apparent inhibition
% Inhibition of agonist-stimulated receptor activity vs. 0.10% DMSO, rPPAR-γ (rPPARγ; 137 nM): 10%
% Inhibition of agonist-stimulated receptor activity vs. 0.10% DMSO, rPPAR-γ (rPPARγ; 412 nM): −13%
% Inhibition of agonist-stimulated receptor activity vs. 0.10% DMSO, rPPAR-γ (rPPARγ; 1,235 nM): −7.6%
% Inhibition of agonist-stimulated receptor activity vs. 0.10% DMSO, rPPAR-γ (rPPARγ; 3,704 nM): −6.7%
% Inhibition of agonist-stimulated receptor activity vs. 0.10% DMSO, rPPAR-γ (rPPARγ; 11,111 nM): −4.1%
% Inhibition of agonist-stimulated receptor activity vs. 0.10% DMSO, rPPAR-γ (rPPARγ; 33,333 nM): 8.4%
% Inhibition of agonist-stimulated receptor activity vs. 0.10% DMSO, rPPAR-γ (rPPARγ; 100,000 nM): 26%
% Inhibition of agonist-stimulated receptor activity vs. 0.10% DMSO, rPPAR-γ (rPPARγ; 300,000 nM): 93%
inhibition of rat PPARs (in words), rPPARγ (rPPARγ; at higher test concentrations): apparent inhibition
SMILES: CC/C=C\C[C@H](O)/C=C/C=C\C/C=C\C/C=C\CCCC(=O)OCC [15-HEPE-EE, 15-HEPE ethyl ester]
% Live cells vs. 0.10% DMSO, rPPAR-α (rPPARα Reporter Cells; 137 nM): 89%
% Live cells vs. 0.10% DMSO, rPPAR-α (rPPARα Reporter Cells; 412 nM): 98%
% Live cells vs. 0.10% DMSO, rPPAR-α (rPPARα Reporter Cells; 1,235 nM): 97%
% Live cells vs. 0.10% DMSO, rPPAR-α (rPPARα Reporter Cells; 3,704 nM): 99%
% Live cells vs. 0.10% DMSO, rPPAR-α (rPPARα Reporter Cells; 11,111 nM): 99%
% Live cells vs. 0.10% DMSO, rPPAR-α (rPPARα Reporter Cells; 33,333 nM): 98%
% Live cells vs. 0.10% DMSO, rPPAR-α (rPPARα Reporter Cells; 100,000 nM): 76%
% Live cells vs. 0.10% DMSO, rPPAR-α (rPPARα Reporter Cells; 300,000 nM): 3.1%
% Live cells vs. 0.10% DMSO, rPPAR-δ (rPPARδ Reporter Cells; 137 nM): 99%
% Live cells vs. 0.10% DMSO, rPPAR-δ (rPPARδ Reporter Cells; 412 nM): 97%
% Live cells vs. 0.10% DMSO, rPPAR-δ (rPPARδ Reporter Cells; 1,235 nM): 98%
% Live cells vs. 0.10% DMSO, rPPAR-δ (rPPARδ Reporter Cells; 3,704 nM): 99%
% Live cells vs. 0.10% DMSO, rPPAR-δ (rPPARδ Reporter Cells; 11,111 nM): 100%
% Live cells vs. 0.10% DMSO, rPPAR-δ (rPPARδ Reporter Cells; 33,333 nM): 100%
% Live cells vs. 0.10% DMSO, rPPAR-δ (rPPARδ Reporter Cells; 100,000 nM): 99%
% Live cells vs. 0.10% DMSO, rPPAR-δ (rPPARδ Reporter Cells; 300,000 nM): 5.0%
